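Briefly, cells in 96-well plates were exposed to five compound concentrations for 48 h, and endpoints were estimated by linear interpolation. The concentration for full growth arrest is given as TGI.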
How the values were obtained:
Assay in all cases: NCI-60 cell line screen, 48 h
MCF7 breast = system: MCF7 breast
A498 renal = system: A498 renal
SF-268 CNS = system: SF-268 CNS
786-0 renal = system: 786-0 renal
SK-OV-3 ovarian = system: SK-OV-3 ovarian
SNB-19 CNS = system: SNB-19 CNS
ACHN renal = system: ACHN renal
IGROV1 ovarian = system: IGROV1 ovarian
UO-31 renal = system: UO-31 renal
MOLT-4 leukemia = system: MOLT-4 leukemia
HL-60(TB) leukemia = system: HL-60(TB) leukemia
EKVX NSCLC = system: EKVX NSCLC
OVCAR-4 ovarian = system: OVCAR-4 ovarian
HT29 colon = system: HT29 colon
MALME-3M melanoma = system: MALME-3M melanoma
SK-MEL-28 melanoma = system: SK-MEL-28 melanoma
NCI/ADR-RES ovarian = system: NCI/ADR-RES ovarian
U251 CNS = system: U251 CNS
SF-295 CNS = system: SF-295 CNS
KM12 colon = system: KM12 colon
NCI-H460 lung = system: NCI-H460 lung
MDA-MB-231 breast = system: MDA-MB-231 breast
TK-10 renal = system: TK-10 renal
SNB-75 CNS = system: SNB-75 CNS
HOP-62 NSCLC = system: HOP-62 NSCLC
MDA-N = system: MDA-N
SN12C renal = system: SN12C renal
SK-MEL-2 melanoma = system: SK-MEL-2 melanoma
RXF 393 renal = system: RXF 393 renal
T-47D breast = system: T-47D breast
NCI-H522 lung = system: NCI-H522 lung
HCT-15 colon = system: HCT-15 colon
DU-145 prostate = system: DU-145 prostate
NCI-H226 lung = system: NCI-H226 lung
COLO 205 colon = system: COLO 205 colon
K-562 leukemia = system: K-562 leukemia
NCI-H23 lung = system: NCI-H23 lung
SF-539 CNS = system: SF-539 CNS
CAKI-1 renal = system: CAKI-1 renal
CCRF-CEM leukemia = system: CCRF-CEM leukemia
OVCAR-3 ovarian = system: OVCAR-3 ovarian
OVCAR-5 ovarian = system: OVCAR-5 ovarian
SR leukemia = system: SR leukemia
RPMI-8226 leukemia = system: RPMI-8226 leukemia
UACC-62 melanoma = system: UACC-62 melanoma
MDA-MB-435 = system: MDA-MB-435
SK-MEL-5 melanoma = system: SK-MEL-5 melanoma
UACC-257 melanoma = system: UACC-257 melanoma
LOX IMVI melanoma = system: LOX IMVI melanoma
M14 melanoma = system: M14 melanoma
HCT-116 colon = system: HCT-116 colon
BT-549 breast = system: BT-549 breast
OVCAR-8 ovarian = system: OVCAR-8 ovarian
HS 578T breast = system: HS 578T breast
PC-3 prostate = system: PC-3 prostate
HOP-92 NSCLC = system: HOP-92 NSCLC
A549 NSCLC = system: A549 NSCLC
SW-620 colon = system: SW-620 colon

Measured: TGI

Cc1c(C(=O)O)nc(/C=C/C(=O)O)[nH]c1=O
> 100 µM: all assays above
